# Assay results taken from article PMC12320299 (Chemical Science, 2025).
# What was measured:
# [1] = tested on: HCT116 TP53 wild-type (TP53WT); assay: MTT viability assay, HCT116 TP53 wild-type, 96 h; assay type: cell-based, human
# Description: removed and 100 µL DMSO was added to dissolve the formazan crystals. Photometric quantification was performed at 570 nm with a Multiskan Go 1510 photometer (Thermo Fisher […]
# The absorbances were blank corrected and converted to relative proliferation. The IC50 values (concentration of 50% growth inhibition) were obtained using a sigmoidal fit of the experimental data and calculated as the mean ± standard deviation of at least three independent experiments, each in at least triplicates.
# HCT116, HCT116 p53KO (each 2.000 cells/well) and CT-26 cells (500 cells/well) were seeded in 100 µL/well into flat-bottom 96-well plates (Starlab) and incubated at 37 °C for 96 h in a humidified incubator (Binder CB210) at 5% CO2. The test compound was dissolved in DMSO, serially diluted in the appropriate cell culture medium (see section above) to final DMSO concentrations of ≤0.5% v/v and 100 µL aliquots added to wells in triplicates. […] Optical densities were measured with a microplate reader (ELx808, Biotek) at a wavelength of 550 nm (and a reference wavelength of 690 nm) and blank corrected. […]
# (each 3.000 cells/well) were seeded in 100 µL/well into flat-bottom 96-well plates (Starlab) and incubated at 37 °C for 24 h in a humidified incubator (Binder CB210) at 5% CO2. […] After 24 h of treatment, plates were measured by MTT assay as described above. […]
# [2] = tested on: p21; assay: p21 expression, immunofluorescence, CT26; assay type: cell-based, murine; settings: 24 h, 1 μM
# Description: Cell Signaling Technology (Danvers, MA, USA), respectively. Horseradish-peroxidase-linked secondary antibodies, anti-mouse IgG (Fc specific) antibody (#7076S) and anti-rabbit IgG antibody (#7074S) were purchased from Cell Signaling Technology (Danvers, MA, USA). Anti-ß-actin (AC-15) (A5441, 1:2000) was obtained from Sigma-Aldrich (St. Louis, MO, USA).
# SW480 and CT26 cells were grown at a density of 6.7x10^4 cells/mL on 8-well glass coverslips (80841, ibidi GmbH, Gräfelfing, Germany) in 300 µL complete media. The next day, cells were treated with respective compounds for 24 h. Cells were fixed with 4%(v/v) paraformaldehyde for 15 min at RT, followed by washing, blocking and permeabilization with 5%(w/v) BSA and […]
# (1 : 500) were diluted in 1% BSA-0.3% Triton-X-100 in PBS and incubated overnight at 4 °C.
# One well was incubated without primary antibody as background control. Cells were washed and stained with secondary goat anti-mouse AlexaFlour-488 (1 : 500 dilution, A-11029, Thermo Fisher Scientific) or goat anti-rabbit AlexaFlour-488 (1 : 500 dilution, A-11034, Thermo Fisher Scientific) antibodies for 1 h at RT. Following, cells were stained with 0.2% Wheat Germ Agglutinin (WGA)-Rhodamine (RL-1022, Vector Laboratories, Inc.) and 0.1% DAPI (62248, Thermo Fisher Scientific) for staining of plasma membrane and nuclei, respectively, according to manufacturer’s recommendations. […]
# [3] = tested on: p21; assay: p21 expression, western blotting and immunofluorescence, SW480; assay type: cell-based, human; settings: 24 h, 1 μM
# Description: overnight at –20 °C. The pellet containing the nuclei was incubated with a hypertonic solution (10 mM Tris-HCl, 1 mM EDTA and 0.5 M NaCl) and subsequently diluted 1:10 with NP-40 buffer (10 mm Tris-HCl, 1 mm EDTA and 0.5% Triton X-100) containing protease inhibitors (1% PMSF, Sigma, and 1% protease and phosphatase inhibitor cocktail, Roche). After centrifugation (960 g, 5 min), the soluble nuclear (NE) proteins were also transferred into new tubes containing ice-cold ethanol (1 : 5, HPLC grade) and precipitated overnight at –20 °C.
# The precipitated proteins were finally pelleted by centrifugation (5000 g, 30 min, 4 °C), the solution was decanted and the pellet dried under vacuum.
# Samples were then dissolved in lysis buffer (8 M urea, 20% SDS, 1 M TEAB at pH 7.55) and denatured at 95 °C for 5 min. The protein amount was then quantified using a BCA assay. A total of 20 µg protein per sample was used for processing. Proteins were reduced with 50 µL of DTT (64 mM) and carbamidomethylated with 50 µL of iodoacetamide (486 mM). […]
# and allowed to adhere overnight. […] For whole cell lysates, samples were collected, proteins isolated, and Western blotting performed as described in detail previously.5 In brief, protein concentration was determined using the Micro BCA™ Protein Assay Kit (Thermo Fisher Scientific, Waltham, MA, USA). […]
structure (smiles),measurement,setting,value
"CCC1=C2[O][Ru][O]C2(n2cccn2)c2ccccc2C1=O.Cc1ccc(C(C)C)cc1 (stereo not drawn) [Compound 1a, [(3-ethyl-4-oxo-(pyrazolyl)-dihydronaphthalene)(cymene)ruthenium(II)]]",IC50,[1],130 ± 20 nM
same,"p21 expression, CT26",[2],significantly reduced p21 expression
same,"p21 expression, SW480",[3],significantly reduced p21 expression
